# According to ChEMBL document CHEMBL1201862, “PubChem BioAssay data set” (2004):
#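 Cultured in 96-well plates, cells were exposed to test compound for 48 hours across five concentrations. GI50: concentration for 50% inhibition of growth.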 Calls of active or inactive are those of the source. Rule as the data show it: active = GI50 up to about 1.1 µM and inactive = higher.
# Experiments:
# Test in all cases: NCI anticancer screen, dose series, 48 h
# UACC-62 = tested on: UACC-62
# CAKI-1 = tested on: CAKI-1
# M14 = tested on: M14
# RXF 393 = tested on: RXF 393
# K562 = tested on: K562
# A549 = tested on: A549
# SF-268 = tested on: SF-268
# MDA-MB-231 = tested on: MDA-MB-231
# TK-10 = tested on: TK-10
# HCT-15 = tested on: HCT-15
# KM12 = tested on: KM12
# DU-145 = tested on: DU-145
# CCRF-CEM = tested on: CCRF-CEM
# T47D = tested on: T47D
# HCT-116 = tested on: HCT-116
# OVCAR-3 = tested on: OVCAR-3
# OVCAR-5 = tested on: OVCAR-5
# IGROV-1 = tested on: IGROV-1
# Malme-3M = tested on: Malme-3M
# LOX IMVI = tested on: LOX IMVI
# BT-549 = tested on: BT-549
# SNB-19 = tested on: SNB-19
# HT-29 = tested on: HT-29
# SK-MEL-2 = tested on: SK-MEL-2
# SK-OV-3 = tested on: SK-OV-3
# HCC 2998 = tested on: HCC 2998
# 786-0 = tested on: 786-0
# SK-MEL-5 = tested on: SK-MEL-5
# HOP-92 = tested on: HOP-92
# MOLT-4 = tested on: MOLT-4
# SNB-75 = tested on: SNB-75
# SR = tested on: SR
# SW-620 = tested on: SW-620
# ACHN = tested on: ACHN
# NCI-H460 = tested on: NCI-H460
# NCI-H226 = tested on: NCI-H226
# SF-539 = tested on: SF-539
# UACC-257 = tested on: UACC-257
# NCI/ADR-RES = tested on: NCI/ADR-RES
# NCI-H522 = tested on: NCI-H522
# COLO 205 = tested on: COLO 205
# HL-60 = tested on: HL-60
# U-251 = tested on: U-251
# NCI-H23 = tested on: NCI-H23
# RPMI-8226 = tested on: RPMI-8226
# UO-31 = tested on: UO-31
# Hs-578T = tested on: Hs-578T
# OVCAR-4 = tested on: OVCAR-4
# MDA-N = tested on: MDA-N
# A498 = tested on: A498
# PC-3 = tested on: PC-3
# MCF7 = tested on: MCF7
# SK-MEL-28 = tested on: SK-MEL-28
# MDA-MB-435 = tested on: MDA-MB-435
# HOP-62 = tested on: HOP-62
# SF-295 = tested on: SF-295
# OVCAR-8 = tested on: OVCAR-8
# EKVX = tested on: EKVX
smiles,measurement,setting,value
O=c1cc(NNc2ccccc2F)[nH]c(=O)[nH]1,GI50,UACC-62,17.1 µM (inactive)
same,GI50,CAKI-1,13 µM (inactive)
same,GI50,M14,17.7 µM (inactive)
same,GI50,RXF 393,1.26 µM (inactive)
same,GI50,K562,21.8 µM (inactive)
same,GI50,A549,55 µM (inactive)
same,GI50,SF-268,19.4 µM (inactive)
same,GI50,MDA-MB-231,16.3 µM (inactive)
same,GI50,TK-10,14.4 µM (inactive)
same,GI50,HCT-15,16 µM
same,GI50,KM12,15.3 µM (inactive)
same,GI50,DU-145,43.3 µM (inactive)
same,GI50,CCRF-CEM,17.5 µM (inactive)
same,GI50,T47D,0.679 µM (active)
same,GI50,HCT-116,16.9 µM (inactive)
same,GI50,OVCAR-3,17.7 µM (inactive)
same,GI50,OVCAR-5,19.5 µM (inactive)
same,GI50,IGROV-1,16.7 µM (inactive)
same,GI50,Malme-3M,18.8 µM (inactive)
same,GI50,LOX IMVI,16 µM (inactive)
same,GI50,BT-549,17.5 µM (inactive)
same,GI50,SNB-19,> 100 µM (inactive)
same,GI50,HT-29,17.9 µM (inactive)
same,GI50,SK-MEL-2,16.7 µM (inactive)
same,GI50,SK-OV-3,21.1 µM (inactive)
same,GI50,HCC 2998,17.9 µM (inactive)
same,GI50,786-0,15.3 µM (inactive)
same,GI50,SK-MEL-5,22.3 µM (inactive)
same,GI50,HOP-92,15.7 µM (inactive)
same,GI50,MOLT-4,23.4 µM (inactive)
same,GI50,SNB-75,25.9 µM (inactive)
same,GI50,SR,1.35 µM (inactive)
same,GI50,SW-620,18 µM (inactive)
same,GI50,ACHN,18.3 µM (inactive)
same,GI50,NCI-H460,0.0667 µM (active)
same,GI50,NCI-H226,21.2 µM (inactive)
same,GI50,SF-539,16.8 µM (inactive)
same,GI50,UACC-257,17.7 µM (inactive)
same,GI50,NCI/ADR-RES,16.6 µM (inactive)
same,GI50,NCI-H522,16.2 µM (inactive)
same,GI50,COLO 205,19.2 µM (inactive)
same,GI50,HL-60,11.9 µM (inactive)
same,GI50,U-251,17.7 µM (inactive)
same,GI50,NCI-H23,17.3 µM (inactive)
same,GI50,RPMI-8226,17.8 µM (inactive)
same,GI50,UO-31,12.2 µM (inactive)
same,GI50,Hs-578T,21.9 µM (inactive)
same,GI50,OVCAR-4,17.7 µM (inactive)
same,GI50,MDA-N,18.5 µM (inactive)
same,GI50,A498,59.8 µM (inactive)
same,GI50,PC-3,18.9 µM (inactive)
same,GI50,MCF7,6.61 µM (inactive)
same,GI50,SK-MEL-28,20.5 µM (inactive)
CN(NC(=O)c1cccs1)C1=NCCN1,GI50,UACC-62,> 100 µM (inactive)
same,GI50,M14,> 100 µM (inactive)
same,GI50,RXF 393,> 100 µM (inactive)
same,GI50,K562,> 100 µM (inactive)
same,GI50,A549,> 100 µM (inactive)
same,GI50,SF-268,> 100 µM (inactive)
same,GI50,MDA-MB-231,> 100 µM (inactive)
same,GI50,TK-10,23.8 µM (inactive)
same,GI50,HCT-15,> 100 µM
same,GI50,KM12,> 100 µM (inactive)
same,GI50,MDA-MB-435,> 100 µM (inactive)
same,GI50,CCRF-CEM,> 100 µM (inactive)
same,GI50,T47D,> 100 µM (inactive)
same,GI50,HCT-116,> 100 µM (inactive)
same,GI50,OVCAR-3,> 100 µM (inactive)
same,GI50,OVCAR-5,> 100 µM (inactive)
same,GI50,IGROV-1,> 100 µM (inactive)
same,GI50,Malme-3M,> 100 µM (inactive)
same,GI50,LOX IMVI,> 100 µM (inactive)
same,GI50,BT-549,> 100 µM (inactive)
same,GI50,SNB-19,> 100 µM (inactive)
same,GI50,HT-29,> 100 µM (inactive)
same,GI50,SK-MEL-2,> 100 µM (inactive)
same,GI50,SK-OV-3,> 100 µM (inactive)
same,GI50,HCC 2998,> 100 µM (inactive)
same,GI50,786-0,> 100 µM (inactive)
same,GI50,SK-MEL-5,> 100 µM (inactive)
same,GI50,HOP-92,> 100 µM (inactive)
same,GI50,MOLT-4,> 100 µM (inactive)
same,GI50,SNB-75,> 100 µM (inactive)
same,GI50,HOP-62,> 100 µM (inactive)
same,GI50,SR,> 100 µM (inactive)
same,GI50,SW-620,> 100 µM (inactive)
same,GI50,SF-295,> 100 µM (inactive)
same,GI50,ACHN,> 100 µM (inactive)
same,GI50,NCI-H460,> 100 µM (inactive)
same,GI50,NCI-H226,> 100 µM (inactive)
same,GI50,SF-539,> 100 µM (inactive)
same,GI50,UACC-257,> 100 µM (inactive)
same,GI50,OVCAR-8,> 100 µM (inactive)
same,GI50,NCI/ADR-RES,> 100 µM (inactive)
same,GI50,NCI-H522,> 100 µM (inactive)
same,GI50,EKVX,> 100 µM (inactive)
same,GI50,COLO 205,> 100 µM (inactive)
same,GI50,HL-60,> 100 µM (inactive)
same,GI50,U-251,> 100 µM (inactive)
same,GI50,NCI-H23,> 100 µM (inactive)
same,GI50,RPMI-8226,> 100 µM (inactive)
same,GI50,UO-31,> 100 µM (inactive)
same,GI50,Hs-578T,> 100 µM (inactive)
same,GI50,OVCAR-4,> 100 µM (inactive)
same,GI50,MDA-N,> 100 µM (inactive)
same,GI50,A498,> 100 µM (inactive)
same,GI50,PC-3,> 100 µM (inactive)
same,GI50,MCF7,> 100 µM (inactive)
same,GI50,SK-MEL-28,> 100 µM (inactive)
